From article PMC5799307, “Creation of a long-acting nanoformulated dolutegravir” (Nature Communications, 2018) come the findings set out here.

Like-named read-outs stand apart in the source and are kept apart here.

What all share (assay type): cell-based
Data set [1] concerns HIV-1ADA. The data set can be described thus: IC50 by HIV-1 RT activity in HIV-1ADA-infected MDM. The following applies: Human immunodeficiency virus 1, 240 h, HIV-1ADA MOI 0.1, RT activity day 10. The method, then: (§1) Antiretroviral efficacy was determined by measurements of HIV reverse transcriptase (RT) activity. For IC50 determination, MDM were exposed to various concentrations (0.01–1000 nM) of DTG or MDTG for 1 h followed by challenge with HIV-1ADA[60] at a multiplicity of infection (MOI) of 0.1 infectious particles per cell for 4 h. Following viral challenge, cells were washed and incubated with the same concentration of drug used before infection for an additional 10 days in culture. Culture fluids were collected on day 10 for the measurement of RT activity as previously described[16],[62],[63]. To assess antiretroviral efficacy, MDM were treated with 100 μM DTG, MDTG, NDTG, or NMDTG as described above for 8 h. After treatment, cells were washed with PBS and cultured with fresh media, with half-media exchanges every other day. At 0, 4, 12 h, and 1, 5, 10, 15, 20, 25, or 30 days after treatment, cells were challenged with HIV-1ADA at an MOI of 0.1 infectious particles per cell for 16 h. After viral infection, the cells were cultured an additional 10 days with half-media exchanges every other day. Culture fluids were collected for measurement of RT activity as previously described[16],[62],[63]. Cells were fixed with 4% PFA and expression of HIV-1p24 antigen was determined by immunocytochemistry.

The test system of data set [2] is human monocyte-derived macrophages (MDM). Particulars: 100 µM. The method, then:
Human monocytes were obtained by leukapheresis from HIV-1/2 and hepatitis B seronegative donors, and then purified by counter-current centrifugal elutriation. Human monocytes were plated in a 12-well plate at a density of 1.0 × 10^6 cells per well using DMEM supplemented with 10% heat-inactivated pooled human serum, 1% glutamine, 10 µg/mL ciprofloxacin, and 50 µg/mL gentamicin. Cells were maintained at 37 °C in a 5% CO2 incubator. After 7 days of differentiation in the presence of 1000 U/mL recombinant human macrophage colony stimulating factor (MCSF), MDM were treated with 100 μM DTG, MDTG, NDTG, or NMDTG. Native drugs were added in DMSO (0.1% v/v). Uptake of drug was assessed by measurements of intracellular drug concentrations at 2, 4, 8, 12, 16, or 24 h after treatment. […] For both studies, adherent MDM were washed with PBS, then scraped into PBS, and counted at indicated time points using an Invitrogen Countess Automated Cell Counter (Carlsbad, CA). […] DTG and MDTG drug content was determined by UPLC-UV/Vis as described above. Release was assessed by collecting culture media after 4-h of drug treatment on days 1, 3, 5, 7, 10, 12, and 14. […] Supernatants were dried using a ThermoScientific Savant Speed Vacuum (Waltham, MA), extracted drug resuspended in 150 µL HPLC-grade methanol, and drug content was determined by UPLC-UV/Vis. […]

In data set [3] the test system is HIV-1ADA. As to the kind of experiment: Antiretroviral efficacy in MDM challenged with HIV-1ADA after single 8-h treatment (RT activity, p24). The protocol: as §1
For immunocytochemistry, cells were washed with PBS and fixed with 4% PFA at room temperature for 15 min, followed by an additional washing with PBS. The cells were treated with a blocking/permeabilizing solution (1% Triton X-100, 10% BSA in PBS) and incubated with mouse monoclonal antibody to HIV-1p24 (1:100) for 16 h at 4 °C. Cells were washed with PBS, and polymer-based HRP-conjugated anti-mouse secondary was added for 30 min at room temperature. Cells were then washed with PBS and developed with DAB. Nuclei were counterstained with Mayer’s hematoxylin, and cells were visualized with a ×20 objective on a Nikon Eclipse E800 microscope (Melville, NY) with Nuance EX multispectral imaging system (PerkinElmer, Hopkinton, MA)[16],[59].

Usually IC50 stands for the concentration needed to halve the response being measured. High values mean weaker potency, low ones greater potency. What is called inhibition is the change of the read-out against control, counted positive when it falls. In data set [1], `C[C@@H]1CCO[C@H]2Cn3cc(C(=O)NCc4ccc(F)cc4F)c(=O)c(O)c3C(=O)N12` [DTG, dolutegravir] displayed an IC50 of 56.7 nM. Further, the “drug retained within MDM” value in data set [2] (24 h) is given as < 0.1 µg/10^6 cells. In addition, in data set [3] (Human immunodeficiency virus 1, single 8-h treatment, read-out: maximal inhibition of HIV-1 RT activity), the inhibition at 100 µM came out at 65%. In addition, in data set [3] (single 8-h treatment, 100 µM), the “time after drug treatment for which efficacy was observed” value was “up to 4 h”.
Take `CCCCCCCCCCCCCC(=O)Oc1c2n(cc(C(=O)NCc3ccc(F)cc3F)c1=O)C[C@@H]1OCC[C@@H](C)N1C2=O` [MDTG]: the IC50 in data set [1] amounted to 62.5 nM. Also, the “maximum cellular drug level” value in data set [2] (4 h) came to 16.7 µg/10^6 cells. Further, the inhibition at 100 µM in data set [3] (Human immunodeficiency virus 1, challenge at day 30 after drug loading, read-out: viral inhibition) was 83%. The “beginning of viral breakthrough” value in data set [3] (days after single 8-h treatment, 100 µM) came to 20 days.
